{
  "source": "patent US7572888B2",
  "about": "“Methods of assaying receptor activity and constructs useful in such methods” (Duke University, priority 1997, dated 2009)",
  "key": {"[1]": {"test_system": "dopamine receptor", "assay": "Locomotor responses to dopamine receptor stimulation", "assay_type": "in vivo, mouse", "details": "data not shown", "source_text": "For example, locomotor responses to dopamine receptor stimulation by cocaine and apornorphine were not enhanced (data not shown). […] Other regulatory elements, such as GRKs or βarrestin-1, could compensate for the lack of βarrestin-2, or the receptors could vary in their requirement for βarrestin interaction for their regulation."}, "[2]": {"target": "μ opioid receptor (μOR) (Mus musculus, UniProt P42866)", "sequence (P42866 whole entry)": "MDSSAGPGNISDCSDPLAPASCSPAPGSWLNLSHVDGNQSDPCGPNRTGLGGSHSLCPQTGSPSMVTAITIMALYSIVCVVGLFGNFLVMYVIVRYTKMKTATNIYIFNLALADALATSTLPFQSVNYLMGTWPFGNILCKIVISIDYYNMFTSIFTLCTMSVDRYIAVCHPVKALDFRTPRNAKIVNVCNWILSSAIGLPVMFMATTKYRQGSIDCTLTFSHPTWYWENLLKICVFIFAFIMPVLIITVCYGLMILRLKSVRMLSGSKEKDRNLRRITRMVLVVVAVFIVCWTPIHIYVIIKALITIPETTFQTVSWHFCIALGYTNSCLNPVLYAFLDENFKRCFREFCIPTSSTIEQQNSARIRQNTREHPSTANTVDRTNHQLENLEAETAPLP", "details": "given before morphine, wild type and βarr2-KO mice (data not shown)", "protocol": "The “response” was defined by the animal either licking the fore- or hind-paws or flicking the hind-paws. […] To avoid tissue damage the animals were not exposed to the plate for more than 30 seconds. […] WT (n=6), heterozygotes (+/−, n=5) and KO (n=9) mice were analyzed together in the same experiment.\nThe degree of antinociception was determined by measuring latency of hot plate (56° C.) responses (FIG. 2). […] After 10 min., antinociception was assessed once more. […] Means±S.E.M. are shown.\nAfter 30 minutes or 2 hours, wild-type mice were killed and blood was collected in vials containing sodium fluoride and potassium-oxalate."}, "[3]": {"target": "T1, μORs (Mus musculus, UniProt P42866)", "T1 construct": "from tissue; host or cells: crude membranes of mouse hypothalamus, brain stem and periaqueductal gray", "T1 sequence (P42866 whole entry)": "as above", "assay": "Agonist-stimulated [35S]GTPγS binding to periaqueductal gray membranes", "assay_type": "biochemical", "details": "PAG membranes, 50-10,000 nM, 2 hour, 30° C."}, "[4]": {"assay": "Rectal body temperature after morphine", "assay_type": "in vivo, mouse", "details": "after morphine treatment"}, "[5]": {"test_system": "μOR", "details": "cited from earlier work"}},
  "data": [
    {"compound": "CN1CCc2cccc3c2[C@H]1Cc1ccc(O)c(O)c1-3", "note": "[apornorphine]", "values": [
      {"measurement": "locomotor responses in βarr2-KO vs wild type", "setting": "[1]", "value": "not enhanced"}
    ]},
    {"compound": "Oc1ccc2c3c1O[C@H]1c4[nH]c5c(c4C[C@@]4(O)[C@@H](C2)N(CC2CC2)CC[C@]314)C[C@@]1(O)[C@H]2Cc3ccc(O)c4c3[C@@]1(CCN2CC1CC1)[C@H]5O4", "note": "[nor-binaltorphimine]", "values": [
      {"measurement": "inhibition of morphine analgesia", "setting": "[2]", "value": "did not inhibit analgesia"}
    ]},
    {"compound": "Oc1ccc2c3c1O[C@H]1c4[nH]c5ccccc5c4C[C@@]4(O)[C@@H](C2)N(CC2CC2)CC[C@]314", "note": "[naltrindole]", "values": [
      {"measurement": "inhibition of morphine analgesia", "setting": "[2]", "value": "did not inhibit analgesia"}
    ]},
    {"compound": "C[C@@H](NC(=O)[C@@H](N)Cc1ccc(O)cc1)C(=O)NCC(=O)N(C)[C@@H](Cc1ccccc1)C(=O)NCCO", "note": "[DAMGO, [D-Ala^2, MePhe^4, Gly^5-ol]enkephalin]", "values": [
      {"measurement": "[35S]GTPγS binding in βarr2-KO membranes compared to wild-type", "setting": "[3]", "value": "stimulated more [^35S]GTPγS binding"}
    ]},
    {"compound": "CN1CC[C@]23c4c5ccc(O)c4O[C@H]2[C@@H](O)C=C[C@H]3[C@H]1C5", "note": "[morphine]", "values": [
      {"measurement": "change in body temperature, βarr2-KO vs wild-type", "setting": "[4]", "value": "greater drop in body temperature"},
      {"measurement": "internalization of the μOR", "setting": "[5]; transfected cells, rat μOR or mouse MOR1", "value": "fails to induce the internalization of the μOR"},
      {"measurement": "translocation of GFP-tagged βarrestin-2 to μOR", "setting": "[5]; μOR overexpressed in cell culture, exposure to morphine", "value": "fails to translocate"}
    ]}
  ]
}
